# Source: US12421240B2, “Hydropyrazino[1,2-d][1,4]diazepine compounds for the treatment of autoimmune disease” (Hoffmann-La Roche Inc., priority 2019, dated 2025)
# Molecular target: T1, human TLR8 (Homo sapiens, UniProt Q9NR97)
# T1 sequence (Q9NR97 27-1041): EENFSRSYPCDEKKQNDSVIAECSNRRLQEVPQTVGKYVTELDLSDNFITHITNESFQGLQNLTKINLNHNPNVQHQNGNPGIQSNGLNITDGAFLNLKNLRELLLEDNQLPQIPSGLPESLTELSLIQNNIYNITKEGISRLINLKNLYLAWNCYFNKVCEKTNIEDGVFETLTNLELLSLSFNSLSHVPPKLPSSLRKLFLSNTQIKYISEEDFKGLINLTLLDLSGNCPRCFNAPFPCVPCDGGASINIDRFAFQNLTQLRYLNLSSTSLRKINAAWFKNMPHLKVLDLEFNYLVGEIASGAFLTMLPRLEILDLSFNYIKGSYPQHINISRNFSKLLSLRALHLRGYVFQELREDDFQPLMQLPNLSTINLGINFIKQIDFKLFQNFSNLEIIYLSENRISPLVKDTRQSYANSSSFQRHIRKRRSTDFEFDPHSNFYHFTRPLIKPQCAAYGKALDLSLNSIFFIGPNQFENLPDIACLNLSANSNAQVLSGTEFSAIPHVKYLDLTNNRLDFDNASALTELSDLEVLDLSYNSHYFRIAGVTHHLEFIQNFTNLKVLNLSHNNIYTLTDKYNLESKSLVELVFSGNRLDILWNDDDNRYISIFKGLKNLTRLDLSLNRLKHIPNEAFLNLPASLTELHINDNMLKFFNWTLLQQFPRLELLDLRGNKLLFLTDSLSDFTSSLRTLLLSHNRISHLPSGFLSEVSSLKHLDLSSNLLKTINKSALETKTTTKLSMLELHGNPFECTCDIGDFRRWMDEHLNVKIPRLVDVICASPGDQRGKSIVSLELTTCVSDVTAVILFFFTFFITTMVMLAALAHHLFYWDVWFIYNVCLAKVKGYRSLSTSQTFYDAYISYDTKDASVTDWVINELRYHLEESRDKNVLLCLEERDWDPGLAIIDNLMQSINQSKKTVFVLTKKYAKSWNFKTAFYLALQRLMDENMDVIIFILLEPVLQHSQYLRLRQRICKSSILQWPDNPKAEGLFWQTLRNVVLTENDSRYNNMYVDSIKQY
# Test: HEK293-Blue-hTLR-8 cells assay (SEAP reporter, R848 stimulation)
# Assay type: cell-based
# Details: HEK293-Blue-hTLR8 cells, R848 ligand, 20 hrs; read-out: HEK/hTLR8 IC50
# Procedure: The following tests were carried out in order to determine the activity of the compounds of formula (I), (Ia) or (Ib) in HEK293-Blue-hTLR-7/8/9 cells assay.
# HEK293-Blue-hTLR-8 Cells Assay:
# A stable HEK293-Blue-hTLR-8 cell line was purchased from InvivoGen (Cat. #: hkb-htlr8, San Diego, California, USA). These cells were originally designed for studying the stimulation of human TLR8 by monitoring the activation of NF-κB. A SEAP (secreted embryonic alkaline phosphatase) reporter gene was placed under the control of the IFN-β minimal promoter fused to five NF-κB and AP-1-binding sites. The SEAP was induced by activating NF-κB and AP-1 via stimulating HEK-Blue hTLR8 cells with TLR8 ligands. Therefore the reporter expression was declined by TLR8 antagonist under the stimulation of a ligand, such as R848, for incubation of 20 hrs. The cell culture supernatant SEAP reporter activity was determined using QUANTI-Blue™ kit (Cat. #: rep-qb1, Invivogen, San Diego, Ca., USA) at a wavelength of 640 nm, a detection medium that turns purple or blue in the presence of alkaline phosphatase.
# HEK293-Blue-hTLR8 cells were incubated at a density of 250,000˜450,000 cells/mL in a volume of 170 μL in a 96-well plate in Dulbecco's Modified Eagle's medium (DMEM) containing 4.5 g/L glucose, 50 U/mL penicillin, […], […], 2 mM L-glutamine, 10% (v/v) heat-inactivated fetal bovine serum with addition of 20 μL test compound in a serial dilution in the presence of final DMSO at 1% and 10 μL of 60 uM R848 in above DMEM, perform incubation under 37° C. in a CO2 incubator for 20 hrs. Then 20 μL of the supernatant from each well was incubated with 180 μL Quanti-blue substrate solution at 37° C. for 2 hrs and the absorbance was read at 620-655 nm using a spectrophotometer. The signaling pathway that TLR8 activation leads to downstream NF-κB activation has been widely accepted, and therefore similar reporter assay was modified for evaluating TLR8 antagonist.
row,SMILES,IC50
1,"C[C@@H]1CN(c2ccc(C#N)c3ncccc23)C[C@@H]2CCN(Cc3cncc(N4CCNCC4)c3)CCN21 [Example 16, 5-[(4R,10aS)-4-methyl-8-[(5-piperazin-1-yl-3-pyridyl)methyl]-1,3,4,6,7,9,10,10a-octahydropyrazino[1,2-d][1,4]diazepin-2-yl]quinoline-8-carbonitrile]",12.1 nM
2,"C[C@@H]1CN(c2ccc(C#N)c3ncccc23)C[C@@H]2CCN(c3cncc4c3CCNC4)CCN21 [Example 4, 5-[(4R,10aS)-4-methyl-8-(5,6,7,8-tetrahydro-2,7-naphthyridin-4-yl)-1,3,4,6,7,9,10,10a-octahydropyrazino[1,2-d][1,4]diazepin-2-yl]quinoline-8-carbonitrile]",2.4 nM
3,"CO[C@@H]1CN(c2cnc(CN3CC[C@H]4CN(c5ccc(C#N)n6nccc56)C[C@@H](C)N4CC3)c(F)c2)C[C@H]1N [Example 26, 4-[(4R,10aS)-8-[[5-[(3R,4R)-3-amino-4-methoxy-pyrrolidin-1-yl]-3-fluoro-2-pyridyl]methyl]-4-methyl-1,3,4,6,7,9,10,10a-octahydropyrazino[1,2-d][1,4]diazepin-2-yl]pyrazolo[1,5-a]pyridine-7-carbonitrile]",85.7 nM
4,"C[C@@H]1CN(c2ccc(C#N)c3ncccc23)C[C@@H]2CCN(Cc3ccc4c(c3)CCNC4)CCN21 [Example 11, 5-[(4R,10aS)-4-methyl-8-(1,2,3,4-tetrahydroisoquinolin-6-ylmethyl)-1,3,4,6,7,9,10,10a-octahydropyrazino[1,2-d][1,4]diazepin-2-yl]quinoline-8-carbonitrile]",4.2 nM
5,"C[C@@H]1CN(c2ccc(C#N)c3ncccc23)C[C@@H]2CCN(Cc3ccc4c(c3)CNCC4)CCN21 [Example 12, 5-[(4R,10aS)-4-methyl-8-(1,2,3,4-tetrahydroisoquinolin-7-ylmethyl)-1,3,4,6,7,9,10,10a-octahydropyrazino[1,2-d][1,4]diazepin-2-yl]quinoline-8-carbonitrile]",2.7 nM
6,"C[C@@H]1CN(c2ccc(C#N)c3ncccc23)C[C@@H]2CCN(Cc3ncc(N4CCNCC4)cc3F)CCN21 [Example 23, 5-[(4R,10aS)-8-[(3-fluoro-5-piperazin-1-yl-2-pyridyl)methyl]-4-methyl-1,3,4,6,7,9,10,10a-octahydropyrazino[1,2-d][1,4]diazepin-2-yl]quinoline-8-carbonitrile]",8.3 nM
7,"CO[C@@H]1CN(c2ccc(CN3CC[C@H]4CN(c5ccc(C#N)c6ncccc56)C[C@@H](C)N4CC3)nc2)C[C@H]1N [Example 22, 5-[(4R,10aS)-8-[[5-[(3R,4R)-3-amino-4-methoxy-pyrrolidin-1-yl]-2-pyridyl]methyl]-4-methyl-1,3,4,6,7,9,10,10a-octahydropyrazino[1,2-d][1,4]diazepin-2-yl]quinoline-8-carbonitrile]",14.1 nM
8,"C[C@@H]1CN(c2ccc(C#N)c3ncccc23)C[C@@H]2CCN(Cc3cccc(N4CCNCC4)n3)CCN21 [Example 18, 5-[(4R,10aS)-4-methyl-8-[(6-piperazin-1-yl-2-pyridyl)methyl]-1,3,4,6,7,9,10,10a-octahydropyrazino[1,2-d][1,4]diazepin-2-yl]quinoline-8-carbonitrile]",8.1 nM
9,"C[C@@H]1CN(c2ccc(C#N)c3ncccc23)C[C@@H]2CCN(c3ccc([C@H]4CNCCO4)cc3)CCN21 [Example 3, 5-[(4R,10aS)-4-methyl-8-[4-[(2S)-morpholin-2-yl]phenyl]-1,3,4,6,7,9,10,10a-octahydropyrazino[1,2-d][1,4]diazepin-2-yl]quinoline-8-carbonitrile]",4.8 nM
